The subject of one assay is A2780. Briefly: Antiproliferative activity against human A2780 cells by MTT assay. The class given is functional, cell-based.
For another assay, the target named is Histone deacetylase 2 (Homo sapiens, UniProt Q92769). Kind of assay: Inhibition of human HDAC2 using p53 fluorogenic peptide (379 to 382 residues) RHKKAc as substrate by fluorescence-based assay.
In assay [1] the target is T1, Protein deacetylase HDAC6 (Homo sapiens, UniProt Q9UBN7).
T1 sequence (Q9UBN7 whole entry): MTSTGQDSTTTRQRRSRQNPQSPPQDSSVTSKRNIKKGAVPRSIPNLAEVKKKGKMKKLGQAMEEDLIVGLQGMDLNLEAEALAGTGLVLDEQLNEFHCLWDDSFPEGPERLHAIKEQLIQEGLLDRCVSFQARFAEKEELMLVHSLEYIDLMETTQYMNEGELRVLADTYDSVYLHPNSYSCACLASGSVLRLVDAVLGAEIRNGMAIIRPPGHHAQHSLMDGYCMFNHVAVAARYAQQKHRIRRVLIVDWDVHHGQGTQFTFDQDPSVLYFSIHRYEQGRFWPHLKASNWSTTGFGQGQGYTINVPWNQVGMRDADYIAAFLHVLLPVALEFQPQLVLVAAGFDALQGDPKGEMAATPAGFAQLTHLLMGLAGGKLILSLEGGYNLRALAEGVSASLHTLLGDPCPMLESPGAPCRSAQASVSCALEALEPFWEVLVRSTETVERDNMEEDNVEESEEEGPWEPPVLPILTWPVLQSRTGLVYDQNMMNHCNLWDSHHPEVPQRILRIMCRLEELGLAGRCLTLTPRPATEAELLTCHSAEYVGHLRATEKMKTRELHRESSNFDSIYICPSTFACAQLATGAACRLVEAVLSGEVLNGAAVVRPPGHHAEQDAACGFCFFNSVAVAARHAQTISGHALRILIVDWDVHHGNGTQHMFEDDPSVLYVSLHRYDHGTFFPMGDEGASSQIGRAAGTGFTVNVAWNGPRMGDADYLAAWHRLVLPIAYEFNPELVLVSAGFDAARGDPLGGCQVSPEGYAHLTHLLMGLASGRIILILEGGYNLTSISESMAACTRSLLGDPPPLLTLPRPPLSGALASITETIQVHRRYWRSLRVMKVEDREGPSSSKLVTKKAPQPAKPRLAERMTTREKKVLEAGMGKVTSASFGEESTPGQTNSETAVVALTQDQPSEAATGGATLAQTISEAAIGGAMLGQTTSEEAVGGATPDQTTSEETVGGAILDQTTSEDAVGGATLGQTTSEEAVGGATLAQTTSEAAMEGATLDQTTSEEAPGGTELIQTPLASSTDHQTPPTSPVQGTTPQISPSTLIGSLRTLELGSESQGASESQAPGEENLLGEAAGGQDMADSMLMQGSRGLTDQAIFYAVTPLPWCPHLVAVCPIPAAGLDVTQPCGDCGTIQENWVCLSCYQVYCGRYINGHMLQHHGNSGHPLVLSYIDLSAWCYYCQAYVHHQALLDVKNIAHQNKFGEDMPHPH
Briefly: Inhibition of human HDAC6 using p53 fluorogenic peptide (379 to 382 residues) RHKKAc as substrate by fluorescence-based assay.

In the next assay the test system is CAL-27. Briefly: Antiproliferative activity against human Cal-27 cells by MTT assay. The class given is functional, cell-based. A general note: Formazan colour is commonly taken as a measure of viable cells.
A further assay is filed under the species Homo sapiens. Briefly: Selectivity ratio of IC50 for human HDAC1 to IC50 for human HDAC6.
A further assay deals with OPM-2. Briefly: Cytotoxicity against human OPM-2 cells incubated for 48 hrs by MTT assay. The class given is functional, cell-based. The note with it: OPM-2, 48 h.
The next assay has as its system MM1.S. Briefly: Cytotoxicity against human MM1.S cells incubated for 48 hrs by MTT assay. The class given is functional, cell-based.
The target in assay [2] is NAD-dependent protein deacetylase sirtuin-1 (Homo sapiens, UniProt Q96EB6). Briefly: Inhibition of human sirtuin 1 using fluorogenic HDAC substrate incubated for 20 mins by fluorimetry.
NAD-dependent protein deacetylase sirtuin-1, sequence (Q96EB6 whole entry): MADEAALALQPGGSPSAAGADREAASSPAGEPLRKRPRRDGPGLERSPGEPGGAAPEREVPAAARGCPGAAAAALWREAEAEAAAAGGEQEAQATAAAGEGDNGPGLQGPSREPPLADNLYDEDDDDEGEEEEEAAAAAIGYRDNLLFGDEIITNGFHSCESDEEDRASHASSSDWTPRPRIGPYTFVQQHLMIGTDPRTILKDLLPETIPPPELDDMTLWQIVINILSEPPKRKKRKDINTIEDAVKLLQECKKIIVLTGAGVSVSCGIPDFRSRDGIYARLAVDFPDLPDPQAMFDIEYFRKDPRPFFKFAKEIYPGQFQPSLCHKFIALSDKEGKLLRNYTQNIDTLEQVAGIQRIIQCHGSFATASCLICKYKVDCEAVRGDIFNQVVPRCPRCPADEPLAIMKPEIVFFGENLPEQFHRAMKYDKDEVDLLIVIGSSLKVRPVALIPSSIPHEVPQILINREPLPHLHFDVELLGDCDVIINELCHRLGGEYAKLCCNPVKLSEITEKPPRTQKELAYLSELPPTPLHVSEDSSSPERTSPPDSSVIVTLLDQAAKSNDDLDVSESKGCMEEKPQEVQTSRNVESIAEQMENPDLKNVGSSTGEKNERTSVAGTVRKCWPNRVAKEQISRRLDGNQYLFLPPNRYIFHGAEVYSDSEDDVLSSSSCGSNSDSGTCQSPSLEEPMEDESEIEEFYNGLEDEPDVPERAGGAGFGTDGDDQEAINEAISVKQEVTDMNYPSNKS
For assay [3], the target named is NAD-dependent protein deacetylase sirtuin-2 (Homo sapiens, UniProt Q8IXJ6). Kind of assay: Inhibition of human sirtuin 2 using fluoro-lysine sirtuin 2 deacetylase as substrate incubated for 60 mins by fluorimetry.
NAD-dependent protein deacetylase sirtuin-2, sequence (Q8IXJ6 whole entry): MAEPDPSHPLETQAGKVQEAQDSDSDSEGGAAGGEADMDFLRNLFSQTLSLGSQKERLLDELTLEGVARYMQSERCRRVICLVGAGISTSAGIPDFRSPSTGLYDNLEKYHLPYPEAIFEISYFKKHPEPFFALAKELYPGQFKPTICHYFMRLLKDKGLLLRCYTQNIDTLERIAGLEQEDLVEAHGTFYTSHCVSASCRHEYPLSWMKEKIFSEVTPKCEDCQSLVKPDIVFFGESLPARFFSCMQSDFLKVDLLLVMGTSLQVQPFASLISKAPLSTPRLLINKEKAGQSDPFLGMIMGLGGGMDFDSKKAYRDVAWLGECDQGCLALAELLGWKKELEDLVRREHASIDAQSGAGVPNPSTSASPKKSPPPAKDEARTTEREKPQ
For a further assay, the system named is KMS-11. Briefly: Antiproliferative activity against human KMS-11 cells incubated for 72 hrs by sulphorhodamine B assay. The class given is functional. A general note: The SRB assay estimates cell density from bound dye.
Another assay has as its system SH-SY5Y. Briefly: Antiproliferative activity against human SH-SY5Y cells incubated for 72 hrs by sulphorhodamine B assay. The class given is functional, cell-based.
The next assay concerns the target Histone deacetylase 1 (Homo sapiens, UniProt Q13547). Briefly: Inhibition of HDAC1 (unknown origin) using (AMC)-labelled p53 peptide( 379 to 382 residues) RHKKAc as substrate.
The target in assay [4] is T1, Protein deacetylase HDAC6. Briefly: Inhibition of HDAC6 (unknown origin) using (AMC)-labelled p53 peptide( 379 to 382 residues) RHKKAc as substrate.
The next assay has as its system HCT-116. Kind of assay: Antitumor activity against human HCT116 cells xenografted in BALB/c athymic nude mouse assessed as tumor growth inhibition at 20 mg/kg administered twice daily for 14 days and measuring daily during compound dosing relative to control. The class given is functional. The note with it: HCT-116, 336 h, time 14 day, read-out: TGI. Background: In xenograft studies the graft and the host belong to different species.

In the next assay the test system is HEK293T. Briefly: Selectivity ratio of IC50 for Flag-tagged HDAC1 (unknown origin) expressed in 293T cells to IC50 for Flag-tagged HDAC6 (unknown origin) expressed in 293T cells. The class given is cell-based. The settings on record: Homo sapiens.
Assay [5] concerns the target T1, Protein deacetylase HDAC6. Briefly: Inhibition of Flag-tagged HDAC6 (unknown origin) expressed in 293T cells using ZMAL as substrate incubated for 180 mins by fluorescence method. Further details: species or system HEK293T.
The next assay deals with Histone deacetylase 5 (Homo sapiens, UniProt Q9UQL6). Kind of assay: Inhibition of human HDAC5 using Fluor deLys substrate by fluorescence method.
Histone deacetylase 5, sequence (Q9UQL6 whole entry): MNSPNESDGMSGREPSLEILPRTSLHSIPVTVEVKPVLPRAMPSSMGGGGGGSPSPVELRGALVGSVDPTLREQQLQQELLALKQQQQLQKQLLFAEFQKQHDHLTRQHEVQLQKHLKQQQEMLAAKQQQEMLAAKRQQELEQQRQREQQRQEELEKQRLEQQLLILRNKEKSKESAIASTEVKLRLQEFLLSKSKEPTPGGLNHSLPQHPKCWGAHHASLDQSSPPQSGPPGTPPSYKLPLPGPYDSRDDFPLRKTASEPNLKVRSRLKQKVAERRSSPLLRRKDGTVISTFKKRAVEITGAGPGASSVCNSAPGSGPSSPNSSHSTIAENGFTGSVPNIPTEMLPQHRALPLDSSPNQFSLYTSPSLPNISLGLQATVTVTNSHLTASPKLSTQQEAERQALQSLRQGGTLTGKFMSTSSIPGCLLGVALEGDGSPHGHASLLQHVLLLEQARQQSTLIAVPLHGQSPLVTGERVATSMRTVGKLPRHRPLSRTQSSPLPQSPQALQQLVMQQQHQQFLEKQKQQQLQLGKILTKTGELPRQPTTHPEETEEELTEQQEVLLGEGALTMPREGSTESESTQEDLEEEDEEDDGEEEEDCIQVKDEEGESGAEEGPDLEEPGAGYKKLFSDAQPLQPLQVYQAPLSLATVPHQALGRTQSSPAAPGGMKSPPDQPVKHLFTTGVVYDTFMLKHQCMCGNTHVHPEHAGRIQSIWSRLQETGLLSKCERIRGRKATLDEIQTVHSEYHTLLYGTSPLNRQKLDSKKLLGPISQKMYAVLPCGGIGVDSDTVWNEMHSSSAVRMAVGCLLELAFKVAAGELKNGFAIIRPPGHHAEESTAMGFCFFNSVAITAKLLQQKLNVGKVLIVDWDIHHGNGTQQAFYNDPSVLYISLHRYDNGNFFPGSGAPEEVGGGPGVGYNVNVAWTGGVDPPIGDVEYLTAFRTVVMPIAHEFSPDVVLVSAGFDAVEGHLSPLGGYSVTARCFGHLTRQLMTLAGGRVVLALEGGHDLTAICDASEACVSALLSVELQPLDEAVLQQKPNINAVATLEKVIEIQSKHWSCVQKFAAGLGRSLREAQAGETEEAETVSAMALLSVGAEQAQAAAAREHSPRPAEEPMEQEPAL
Assay [6] concerns the target T2, Polyamine deacetylase HDAC10 (Homo sapiens, UniProt Q969S8).
T2 sequence (Q969S8 whole entry): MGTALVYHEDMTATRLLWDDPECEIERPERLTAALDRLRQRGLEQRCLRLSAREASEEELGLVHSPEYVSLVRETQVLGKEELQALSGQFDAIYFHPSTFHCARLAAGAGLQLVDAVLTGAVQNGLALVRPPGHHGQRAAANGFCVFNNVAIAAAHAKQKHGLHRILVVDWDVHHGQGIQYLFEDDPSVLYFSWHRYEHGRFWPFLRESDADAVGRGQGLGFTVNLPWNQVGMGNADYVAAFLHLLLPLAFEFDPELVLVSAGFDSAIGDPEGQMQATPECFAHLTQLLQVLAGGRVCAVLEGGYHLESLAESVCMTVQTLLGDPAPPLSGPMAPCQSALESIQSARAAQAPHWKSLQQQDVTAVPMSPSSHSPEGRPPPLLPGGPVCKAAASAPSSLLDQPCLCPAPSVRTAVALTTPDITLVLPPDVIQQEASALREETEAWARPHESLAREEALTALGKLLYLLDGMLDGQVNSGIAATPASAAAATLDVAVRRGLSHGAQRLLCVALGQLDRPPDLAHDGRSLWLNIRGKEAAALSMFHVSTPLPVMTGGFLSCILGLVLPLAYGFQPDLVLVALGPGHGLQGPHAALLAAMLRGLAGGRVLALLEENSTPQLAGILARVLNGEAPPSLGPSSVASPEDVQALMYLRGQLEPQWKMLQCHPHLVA
Kind of assay: Inhibition of N-terminal Flag tagged- human HDAC10 (2 to 631 amino acids) expressed in baculovirus infected Sf9 cells using Fluor deLys substrate by fluorescence method.

For the next assay, the target named is Histone deacetylase 4 (Homo sapiens, UniProt P56524). Kind of assay: Inhibition of human HDAC4 expressed in sf9 cells using Fluor deLys substrate by fluorescence method.
Histone deacetylase 4, sequence (P56524 whole entry): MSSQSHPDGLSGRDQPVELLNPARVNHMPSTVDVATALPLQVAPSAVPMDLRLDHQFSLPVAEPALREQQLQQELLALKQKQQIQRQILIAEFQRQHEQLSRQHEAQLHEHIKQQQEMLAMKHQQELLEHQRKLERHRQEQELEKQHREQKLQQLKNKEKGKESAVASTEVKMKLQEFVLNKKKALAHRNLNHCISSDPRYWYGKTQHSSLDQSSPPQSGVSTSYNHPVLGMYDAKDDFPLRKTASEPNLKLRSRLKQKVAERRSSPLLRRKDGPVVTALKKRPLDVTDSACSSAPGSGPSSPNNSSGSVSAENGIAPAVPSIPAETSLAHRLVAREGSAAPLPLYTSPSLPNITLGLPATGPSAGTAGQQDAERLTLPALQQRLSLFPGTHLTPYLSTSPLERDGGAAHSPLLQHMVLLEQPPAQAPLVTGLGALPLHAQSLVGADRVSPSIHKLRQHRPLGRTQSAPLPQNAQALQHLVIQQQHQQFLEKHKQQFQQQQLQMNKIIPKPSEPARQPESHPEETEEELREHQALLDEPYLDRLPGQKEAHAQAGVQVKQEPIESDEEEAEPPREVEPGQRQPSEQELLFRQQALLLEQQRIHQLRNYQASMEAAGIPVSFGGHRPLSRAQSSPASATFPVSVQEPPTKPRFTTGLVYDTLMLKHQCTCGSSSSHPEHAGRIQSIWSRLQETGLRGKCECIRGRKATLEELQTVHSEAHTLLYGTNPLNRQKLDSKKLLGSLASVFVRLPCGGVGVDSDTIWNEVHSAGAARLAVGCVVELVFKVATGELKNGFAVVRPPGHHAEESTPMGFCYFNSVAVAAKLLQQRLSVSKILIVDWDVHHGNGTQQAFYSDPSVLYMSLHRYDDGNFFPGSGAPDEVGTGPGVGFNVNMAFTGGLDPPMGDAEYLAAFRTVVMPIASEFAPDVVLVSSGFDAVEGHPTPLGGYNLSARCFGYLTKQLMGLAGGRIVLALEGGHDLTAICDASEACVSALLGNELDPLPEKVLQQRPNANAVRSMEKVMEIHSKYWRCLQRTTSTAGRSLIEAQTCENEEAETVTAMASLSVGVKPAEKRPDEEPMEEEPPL

Histone deacetylase 2, sequence (Q92769 whole entry, the tested form may be a part): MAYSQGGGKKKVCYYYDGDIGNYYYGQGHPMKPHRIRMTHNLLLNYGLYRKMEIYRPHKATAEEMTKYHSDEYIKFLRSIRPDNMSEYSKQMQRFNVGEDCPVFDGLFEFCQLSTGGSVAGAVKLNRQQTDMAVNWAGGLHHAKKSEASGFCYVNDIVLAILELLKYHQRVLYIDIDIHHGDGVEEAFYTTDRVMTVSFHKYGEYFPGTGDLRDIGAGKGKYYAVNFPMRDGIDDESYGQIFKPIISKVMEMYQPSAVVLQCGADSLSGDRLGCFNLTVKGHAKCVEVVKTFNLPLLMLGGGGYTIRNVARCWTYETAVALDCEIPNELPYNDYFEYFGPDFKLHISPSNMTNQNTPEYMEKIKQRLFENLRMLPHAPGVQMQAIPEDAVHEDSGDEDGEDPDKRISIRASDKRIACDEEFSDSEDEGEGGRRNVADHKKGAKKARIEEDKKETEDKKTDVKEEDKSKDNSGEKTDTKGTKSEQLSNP
Histone deacetylase 1, sequence (Q13547 whole entry, the tested form may be a part): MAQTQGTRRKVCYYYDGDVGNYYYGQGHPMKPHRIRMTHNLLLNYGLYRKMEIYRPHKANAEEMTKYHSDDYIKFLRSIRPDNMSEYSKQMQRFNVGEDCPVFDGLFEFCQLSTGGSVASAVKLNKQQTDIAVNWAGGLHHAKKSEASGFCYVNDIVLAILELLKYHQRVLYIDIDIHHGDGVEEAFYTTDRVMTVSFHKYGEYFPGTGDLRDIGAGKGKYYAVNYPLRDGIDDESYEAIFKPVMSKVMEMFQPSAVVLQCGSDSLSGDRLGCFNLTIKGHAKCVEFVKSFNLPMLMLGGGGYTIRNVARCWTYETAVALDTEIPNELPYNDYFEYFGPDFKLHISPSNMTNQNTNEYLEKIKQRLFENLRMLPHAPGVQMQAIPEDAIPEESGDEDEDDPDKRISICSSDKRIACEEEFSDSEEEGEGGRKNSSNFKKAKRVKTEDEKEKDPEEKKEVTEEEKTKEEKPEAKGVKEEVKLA

Usually IC50 stands for the point on the concentration scale where inhibition reaches its midpoint. High values mean a need for much substance, low ones inhibition by little substance. As for `CN(C)c1ccc(C(=O)N(CC(=O)NC2CCCCC2)Cc2ccc(C(=O)NO)cc2)cc1`, the half-maximal inhibitory concentration (IC50) with A2780 is 0.34 µM; against Histone deacetylase 2, 0.2 µM; in assay [1], 0.00159 µM; in the assay on CAL-27, 2.04 µM.

Take `Cc1nc2ccccc2n1Cc1ccc(C(=O)NO)cc1F`: the Ratio IC50 in the assay listed under Homo sapiens came out at 1400.

As to `O=C(CCCCCCNC(=O)c1cnc(N(c2ccccc2)c2ccccc2)nc1)NO` [RICOLINOSTAT], the IC50 in the assay on OPM-2 was 2 µM; with MM1.S it was 2 µM; in assay [2], above 1 µM; in assay [3], above 1 µM.

Usually GI50 stands for the concentration at which growth is held to half of that of the control. A lower GI50 goes with more potent growth inhibition. With `CC(/C=C/C(=O)NO)=C\c1ccc(NS(=O)(=O)c2ccc(N(CCCl)CCCl)cc2)cc1`, halving of growth in the assay with KMS-11 (GI50) required 0.48 µM. Further, the figures for the 50% inhibitory concentration (IC50) (in the assay on SH-SY5Y; on Histone deacetylase 1; in [4]) were 0.28 µM, 14 µM and 0.479 µM, respectively. In the assay on HCT-116, the inhibition in vivo at 20 mg/kg turned out to be 78%.

Regarding `COC(=O)[C@@H](Cc1ccccn1)NC(=O)CCCCCCC(=O)NO`, the Ratio IC50 in the assay with HEK293T was 20. This compound displayed an IC50 in [5] of 4.01 µM.

As to `CN(C)c1cccc2c(S(=O)(=O)NCCCCCC(=O)NO)cccc12`, the 50% inhibitory concentration (IC50) on Histone deacetylase 5 was 0.4 µM; in assay [6], 0.42 µM; at Histone deacetylase 4 it was 0.33 µM.

Values taken from ChEMBL document CHEMBL4673207, “Recent advances in the discovery of potent and selective HDAC6 inhibitors” (Eur J Med Chem, 2018).
